Data on 23 compounds can be found in patent US12509424B2, “Compound and composition as PDGF receptor kinase inhibitor” (NIPPON SHINYAKU CO., LTD., priority 2019, dated 2025).

Like-named read-outs stand apart in the source and are kept apart here.

In assay [1] the target is PDGFR-β (Homo sapiens (Human), UniProt P09619). Description: PDGFR-β tyrosine kinase inhibitory action (HTRF KinEASE-TK). The following applies: PDGFR-β enzyme 1 ng/μL, 30° C. for 30 minutes; read-out: PDGF-β IC50. It counts as biochemical. In short, it runs like this: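 Recombinant PDGFR-β at 1 ng/μL final with TK substrate-3-biotin in a substrate solution containing 0.6 μM ATP; buffer 50 mM HEPES pH 7.0, 5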
Chain of PDGFR-β (P09619 33-1106): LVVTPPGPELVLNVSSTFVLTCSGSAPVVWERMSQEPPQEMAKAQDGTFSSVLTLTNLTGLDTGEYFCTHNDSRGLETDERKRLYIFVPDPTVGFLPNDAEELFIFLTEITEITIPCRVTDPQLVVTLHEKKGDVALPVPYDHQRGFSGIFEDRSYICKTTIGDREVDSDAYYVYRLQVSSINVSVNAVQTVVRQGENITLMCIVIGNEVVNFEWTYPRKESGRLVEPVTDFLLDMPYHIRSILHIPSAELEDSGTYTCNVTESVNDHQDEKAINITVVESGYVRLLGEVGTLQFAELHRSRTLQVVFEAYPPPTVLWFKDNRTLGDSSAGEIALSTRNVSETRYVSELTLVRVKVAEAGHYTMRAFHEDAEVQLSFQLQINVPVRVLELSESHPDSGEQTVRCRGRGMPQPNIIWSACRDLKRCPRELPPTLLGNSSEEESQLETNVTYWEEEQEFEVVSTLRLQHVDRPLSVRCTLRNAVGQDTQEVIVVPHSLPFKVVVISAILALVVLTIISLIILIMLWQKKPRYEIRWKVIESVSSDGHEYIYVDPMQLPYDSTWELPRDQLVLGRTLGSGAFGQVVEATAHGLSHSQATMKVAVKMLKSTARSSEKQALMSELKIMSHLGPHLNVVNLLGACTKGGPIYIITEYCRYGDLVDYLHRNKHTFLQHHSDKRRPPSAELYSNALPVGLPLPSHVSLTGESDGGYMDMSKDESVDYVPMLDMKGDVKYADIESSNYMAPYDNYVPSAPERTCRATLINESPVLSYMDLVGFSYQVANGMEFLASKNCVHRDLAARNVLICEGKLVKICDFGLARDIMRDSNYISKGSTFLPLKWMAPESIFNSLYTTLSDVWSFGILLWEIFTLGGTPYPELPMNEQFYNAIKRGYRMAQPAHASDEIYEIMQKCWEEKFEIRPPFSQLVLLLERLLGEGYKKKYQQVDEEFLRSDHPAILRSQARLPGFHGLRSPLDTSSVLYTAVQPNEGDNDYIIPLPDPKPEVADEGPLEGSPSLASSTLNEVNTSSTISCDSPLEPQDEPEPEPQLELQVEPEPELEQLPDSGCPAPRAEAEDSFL

For assay [2], the target named is TEL-PDGFRβ fusion gene transfected cells (Ba/F3). Briefly: Suppression of proliferation of TEL-PDGFRβ fusion gene transfected Ba/F3 cells. It counts as cell-based, human. The conditions noted are these: TEL-PDGFRβ expressing Ba/F3 cells, 72 hours, final concentration 0.1 to 10,000 nM; read-out: PDGFR β/BaF3 proliferation inhibition (IC50). The text has this: 2. Preparation of Test Substance
Chain of TEL-PDGFRβ fusion gene transfected cells (Ba/F3) (P09619 33-1106 limits assumed, change not shown): as the sequence (P09619 33-1106) above
4. Analysis of Measurement Results

Assay [3] has as its system pulmonary arterial smooth muscle cells. Briefly: Suppression of proliferation of pulmonary arterial smooth muscle cells (PDGF-BB stimulation, BrdU). It counts as cell-based. The following applies: PASMC, read-out: Human normal PASMC proliferation suppression (PDGF stimulation_IC50). A digest of the protocol: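 Test compound (final 3 to 10,000 nM) was added together with BrdU and PDGF-BB (final 10 ng/mL) to healthy human pulmonary artery smooth muscle cells held a day in 0.1% FBS. Proliferation was read after 1 day as anti-BrdU-detected BrdU incorporation.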

Assay [4] deals with TEL-KIT fusion gene transfected cells (Ba/F3). Briefly: Suppression of proliferation of TEL-KIT fusion gene transfected Ba/F3 cells.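 Further: viable cells quantified via formazan from tetrazolium reduction, inhibition scaled with 0.1% DMSO control as 0% and medium-only blank as 100%, IC50 from two-parameter logistic fit.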 The following applies: read-out: KIT/BaF3 proliferation inhibition (IC50); TEL-KIT expressing Ba/F3 cells, 72 hours, final concentration 0.1 to 10,000 nM.
Chain of TEL-KIT fusion gene transfected cells (Ba/F3) (P10721 26-976 limits assumed, change not shown): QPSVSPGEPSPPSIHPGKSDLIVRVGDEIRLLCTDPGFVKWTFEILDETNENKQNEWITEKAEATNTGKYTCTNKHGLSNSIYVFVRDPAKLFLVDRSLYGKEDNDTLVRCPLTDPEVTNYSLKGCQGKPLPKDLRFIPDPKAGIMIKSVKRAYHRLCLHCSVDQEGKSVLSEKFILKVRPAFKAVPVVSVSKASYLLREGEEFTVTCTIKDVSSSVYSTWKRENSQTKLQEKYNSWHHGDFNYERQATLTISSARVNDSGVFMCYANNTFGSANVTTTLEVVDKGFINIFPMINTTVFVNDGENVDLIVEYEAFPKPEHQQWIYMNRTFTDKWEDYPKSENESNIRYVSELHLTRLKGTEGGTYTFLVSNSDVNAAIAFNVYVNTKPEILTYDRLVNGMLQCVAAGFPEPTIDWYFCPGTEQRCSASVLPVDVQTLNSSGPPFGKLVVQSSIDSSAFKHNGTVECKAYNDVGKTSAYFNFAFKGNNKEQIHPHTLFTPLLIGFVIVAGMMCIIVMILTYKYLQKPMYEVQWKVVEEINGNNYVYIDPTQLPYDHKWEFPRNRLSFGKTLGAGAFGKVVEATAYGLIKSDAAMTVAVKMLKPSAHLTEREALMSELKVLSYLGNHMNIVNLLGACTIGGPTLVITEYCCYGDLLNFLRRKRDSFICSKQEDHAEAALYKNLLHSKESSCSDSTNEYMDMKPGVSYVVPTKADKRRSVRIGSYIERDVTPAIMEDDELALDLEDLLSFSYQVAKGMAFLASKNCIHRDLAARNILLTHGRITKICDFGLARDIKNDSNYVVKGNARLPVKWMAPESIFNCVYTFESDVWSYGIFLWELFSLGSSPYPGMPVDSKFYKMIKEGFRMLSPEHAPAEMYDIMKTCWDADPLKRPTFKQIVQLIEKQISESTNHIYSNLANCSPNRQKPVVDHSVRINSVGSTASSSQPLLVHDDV
The mark [5] stands for this setting: 24 h, healthy human derived pulmonary arterial smooth muscle cells, human PDGF-BB 10 ng/mL stimulation, BrdU uptake after 1 day, test substance final concentration 3 to 10,000 nM.
Setting [6] is: human PDGF-BB 10 ng/mL, BrdU uptake, final concentration 3 to 10,000 nM.

Take `Cc1ccc(C(=O)N[C@H]2CCCC[C@@H]2O)cc1C(C)Nc1cncc(-c2ccccc2)n1` (stereo partly drawn) [Example 164, N-[(1S,2S)-2-hydroxycyclohexyl]-4-methyl-3-{1-[(6-phenylpyrazin-2-yl)amino]ethyl}benzamide]: the IC50 in assay [1] worked out at 110 nM; in assay [2], 180 nM; in assay [3] (setting [5]), 110 nM; in assay [4] it was 1400 nM.

Regarding `Cc1ccc(C(=O)N[C@H]2CCCC[C@@H]2O)cc1NC(=O)c1cnc2sccn12` [Example 45, N-(5-{[(1S,2S)-2-hydroxycyclohexyl]carbamoyl}-2-methylphenyl)imidazo[2,1-b][1,3]thiazole-5-carboxamide], the IC50 was determined as 15 nM in assay [1], 0.8 nM in assay [2], 56 nM in assay [3] (setting [5]) and 92 nM in assay [4].

For the compound `Cc1ccc(C(=O)N[C@H]2CCCC[C@@H]2O)cc1NCc1cncc(Br)c1` [Example 91, 3-{[(5-bromopyridin-3-yl)methyl]amino}-N-[(1S,2S)-2-hydroxycyclohexyl]-4-methylbenzamide], the IC50 in assay [1] is 150 nM; in assay [2], 26 nM; in assay [3] (setting [5]), 150 nM; in assay [4] it was 2700 nM.

Turning to `Cc1ccc(C(=O)N[C@H]2CCCC[C@@H]2O)cc1C#Cc1cncc(-c2ncccn2)c1` [Example 62, N-[(1S,2S)-2-hydroxycyclohexyl]-4-methyl-3-{[5-(pyrimidin-2-yl)pyridin-3-yl]ethynyl}benzamide], the IC50 came out at 6.5 nM in assay [1], 1.7 nM in assay [2], 34 nM in assay [3] (setting [5]) and 87 nM in assay [4].

On to `Cc1ccc(C(=O)N[C@H]2CCCC[C@@H]2O)cc1NC(=O)c1cncc(-c2ccccc2F)c1` [Example 29, 5-(2-fluorophenyl)-N-(5-{[(1S,2S)-2-hydroxycyclohexyl]carbamoyl}-2-methylphenyl)pyridine-3-carboxamide], for which the IC50 in assay [1] was determined as 35 nM; in assay [2], 7.5 nM; in assay [3] (setting [5]) it was 130 nM; in assay [4] it was 290 nM.

For `CCCc1ncc(C(=O)Nc2cc(C(=O)N[C@H]3CCCC[C@@H]3O)ccc2C)s1` [Example 10, N-(5-{[(1S,2S)-2-hydroxycyclohexyl]carbamoyl}-2-methylphenyl)-2-propyl-1,3-thiazole-5-carboxamide], the IC50 stood at 220 nM in assay [1], 25 nM in assay [2], 140 nM in assay [3] (setting [6]) and 660 nM in assay [4].

For `Cc1ccc(C(=O)N[C@H]2CCCC[C@@H]2O)cc1NC(=O)c1cncc(-c2ccc(F)cc2F)c1` [Example 31, 5-(2,4-difluorophenyl)-N-(5-{[(1S,2S)-2-hydroxycyclohexyl]carbamoyl}-2-methylphenyl)pyridine-3-carboxamide], the IC50 stood at 73 nM in assay [1], 8 nM in assay [2], 100 nM in assay [3] (setting [5]) and 1000 nM in assay [4].

Regarding `Cc1ccc(C(=O)N[C@H]2CCCC[C@@H]2O)cc1NC(=O)c1cncc(-c2cccc(Cl)c2)c1` [Example 11, 5-(3-chlorophenyl)-N-(5-{[(1S,2S)-2-hydroxycyclohexyl]carbamoyl}-2-methylphenyl)pyridine-3-carboxamide], the IC50 in assay [1] is 17 nM; in assay [2], 13 nM; in assay [3] (setting [6]) it was 49 nM; in assay [4], 310 nM.

`Cc1ccc(C(=O)N[C@H]2CCCC[C@@H]2O)cc1NC(=O)c1cnc(NC2(C)CCC2)s1` [Example 40, N-(5-{[(1S,2S)-2-hydroxycyclohexyl]carbamoyl}-2-methylphenyl)-2-[(1-methylcyclobutyl)amino]-1,3-thiazole-5-carboxamide]: the IC50 worked out at 43 nM in assay [1], 4.6 nM in assay [2], 75 nM in assay [3] (setting [5]) and 1200 nM in assay [4].

With `Cc1ccc(C(=O)N[C@H]2CCCC[C@@H]2O)cc1NCc1cncc(-c2cc(F)cc(F)c2)c1` [Example 100, 3-({[5-(3,5-difluorophenyl)pyridin-3-yl]methyl}amino)-N-[(1S,2S)-2-hydroxycyclohexyl]-4-methylbenzamide], the IC50 came to 32 nM in assay [1], 17 nM in assay [2], 71 nM in assay [3] (setting [5]) and 8900 nM in assay [4].

As for `Cc1ccc(C(=O)N[C@H]2CCCC[C@@H]2O)cc1OCc1cncc(-c2ncccn2)c1` [Example 166, N-[(1S,2S)-2-hydroxycyclohexyl]-4-methyl-3-{[5-(pyrimidin-2-yl)pyridin-3-yl]methoxy}benzamide], the IC50 in assay [1] is 49 nM; in assay [2] it was 2.5 nM; in assay [3] (setting [5]), 65 nM; in assay [4], 1200 nM.

On to `Cc1ccc(C(=O)N[C@H]2CCCC[C@@H]2O)cc1NC(=O)c1cnc(-c2ccccc2)o1` [Example 5, N-(5-{[(1S,2S)-2-hydroxycyclohexyl]carbamoyl}-2-methylphenyl)-2-phenyl-1,3-oxazole-5-carboxamide], for which the IC50 in assay [1] is 6.1 nM; in assay [2], 5.8 nM; in assay [3] (setting [6]), 48 nM; in assay [4], 170 nM.

Regarding `Cc1ccc(C(=O)N[C@H]2CCCC[C@@H]2O)cc1NC(=O)c1cncc(-c2cc(F)c(F)c(F)c2)c1` [Example 42, N-(5-{[(1S,2S)-2-hydroxycyclohexyl]carbamoyl}-2-methylphenyl)-5-(3,4,5-trifluorophenyl)pyridine-3-carboxamide], the IC50 in assay [1] came to 230 nM; in assay [2], 41 nM; in assay [3] (setting [5]) it was 95 nM; in assay [4], 7900 nM.

Turning to `Cc1ccc(C(=O)N[C@H]2CCCC[C@@H]2O)cc1NCc1cnn2ccsc12` [Example 105, N-[(1S,2S)-2-hydroxycyclohexyl]-4-methyl-3-{[(pyrazolo[5,1-b][1,3]thiazol-7-yl)methyl]amino}benzamide], the IC50 turned out to be 230 nM in assay [1], 4.7 nM in assay [2], 28 nM in assay [3] (setting [5]) and 920 nM in assay [4].

As for `Cc1ccc(C(=O)N[C@H]2CCCC[C@@H]2O)cc1CCc1cncc(-c2ccccc2)c1` [Example 174, N-[(1S,2S)-2-hydroxycyclohexyl]-4-methyl-3-[2-(5-phenylpyridin-3-yl)ethyl]benzamide], the IC50 turned out to be 27 nM in assay [1], 50 nM in assay [2] and 870 nM in assay [4].

On to `Cc1ccc(C(=O)N[C@H]2CCCC[C@@H]2O)cc1OC(C)c1cncc(-c2ncccn2)c1` (stereo partly drawn) [Example 171, N-[(1S,2S)-2-hydroxycyclohexyl]-4-methyl-3-{1-[5-(pyrimidin-2-yl)pyridin-3-yl]ethoxy}benzamide], for which the IC50 in assay [1] is 260 nM; in assay [2] it was 12 nM; in assay [4], 2400 nM.

For `Cc1ccc(C(=O)N[C@H]2CCCC[C@@H]2O)cc1C(=O)Nc1cncc(-c2ccccc2)c1` [Example 77, N^1-[(1S,2S)-2-hydroxycyclohexyl]-4-methyl-N^3-(5-phenylpyridin-3-yl)benzene-1,3-dicarboxamide], the results for the IC50 in assay [1], in assay [2] and in assay [4] were 38 nM, 79 nM and 600 nM, respectively.

Turning to `Cc1ccc(C(=O)N[C@H]2CCCC[C@@H]2O)cc1/C=C(\F)c1cncc(NC2CCN(C)CC2)c1` [Example 193, 3-[(Z)-2-fluoro-2-{5-[(1-methylpiperidin-4-yl)amino]pyridin-3-yl}ethenyl]-N-[(1S,2S)-2-hydroxycyclohexyl]-4-methylbenzamide], the IC50 in assay [1] came to 1 nM; in assay [3] (setting [5]), 18 nM.

In the case of `Cc1ccc(C(=O)N[C@H]2CCCC[C@@H]2O)cc1/C=C(\F)c1cnc(N)cn1` [Example 206, 3-[(Z)-2-(5-aminopyrazin-2-yl)-2-fluoroethenyl]-N-[(1S,2S)-2-hydroxycyclohexyl]-4-methylbenzamide], the IC50 was 31 nM in assay [1] and 92 nM in assay [3] (setting [6]).

On to `COc1cncc(C(=O)Nc2cc(C(=O)N[C@H]3CCCC[C@@H]3O)ccc2C)c1` [Example 49, N-(5-{[(1S,2S)-2-hydroxycyclohexyl]carbamoyl}-2-methylphenyl)-5-methoxypyridine-3-carboxamide], for which the figures for the IC50 in assay [1] and in assay [3] (setting [5]) were 120 nM and 250 nM, respectively.

For `Nc1ncc(CNc2cc(C(=O)N[C@H]3CCCC[C@@H]3O)ccc2Cl)cn1` [Example 142, 3-{[(2-aminopyrimidin-5-yl)methyl]amino}-4-chloro-N-[(1S,2S)-2-hydroxycyclohexyl]benzamide], the IC50 stood at 210 nM in assay [1] and 130 nM in assay [3] (setting [5]).

Consider `Cc1ccc(C(=O)N[C@H]2CCCC[C@@H]2O)cc1/C=C(\F)c1ccc(NCCN(C)C)nc1` [Example 197, 3-[(Z)-2-(6-{[2-(dimethylamino)ethyl]amino}pyridin-3-yl)-2-fluoroethenyl]-N-[(1S,2S)-2-hydroxycyclohexyl]-4-methylbenzamide], for which the IC50 in assay [1] amounted to 120 nM; in assay [3] (setting [5]), 110 nM.

In the case of `O=C(N[C@H]1CCCC[C@@H]1O)c1ccc(F)c(/C=C(\F)c2cncc(F)c2)c1` [Example 207, 4-fluoro-3-[(Z)-2-fluoro-2-(5-fluoropyridin-3-yl)ethenyl]-N-[(1S,2S)-2-hydroxycyclohexyl]benzamide], the results for the IC50 in assay [1] and in assay [3] (setting [6]) were 100 nM and 99 nM, respectively.
